For this assay, the target named is BRCT(BRCA1) (Homo sapiens, UniProt P38398). The assay is described as follows: fluorescence polarization competition. The assay is classed as binding. The text has this: fluorescence polarization competition on BRCT(BRCA1)

For one compound, IC50 results are on record in paper PMC4999267, “Characterization of Promiscuous Binding of Phosphor Ligands to Breast-Cancer-Gene 1 (BRCA1) C-Terminal (BRCT): Molecular Dynamics, Free Energy, Entropy and Inhibitor Design” (PLoS Computational Biology, 2016).

Usually IC50 stands for the concentration that gives 50% inhibition.

Sequence of BRCT(BRCA1) (P38398 1646-1859): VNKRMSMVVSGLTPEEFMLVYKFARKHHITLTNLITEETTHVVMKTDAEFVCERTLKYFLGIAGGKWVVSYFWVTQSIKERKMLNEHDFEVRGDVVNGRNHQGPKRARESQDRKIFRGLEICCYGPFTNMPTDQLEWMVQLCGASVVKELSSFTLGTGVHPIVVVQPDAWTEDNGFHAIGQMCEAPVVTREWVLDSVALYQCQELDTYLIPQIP

Compound `CC(=O)N[C@@H](COP(=O)(O)O)C(=O)Nc1cccc(CC(=O)N[C@@H](Cc2ccccc2)C(=O)O)c1` [N1] displayed an IC50 of over 250 µM.
